Tests used:
WM3928 cells = assay: WM3928 Cell Proliferation Assay (1); type: cell-based
Experimental: WM3928 Cell Proliferation Assay (1)
WM3928 cells (#WM3928-01-0001) are obtained from Rockland Immunochemicals Inc (Gilbertsville, PA). Briefly, cells were grown in MCDB 153 medium (Sigma, #M7403, St. Louis, MO) supplemented with 20% Leibovitz's L-15 (ThermoFisher #11415-064, Waltham, MA), 2% heat inactivated fetal bovine serum (ThermoFisher, #A3840001, Waltham, MA), 5 μg/mL Insulin (Bovine Pancreas) (Sigma, #I0516, St. Louis, MO), 1.68 mM Calcium Chloride (Sigma, #C-34006, St. Louis, MO) and 1% Penicillin/Streptomycin/L-Glutamine (ThermoFisher #10378016, Waltham, MA) at 37° C., 5% CO2, and 95% humidity. Cells are expanded until reaching 70-95% confluency at which point they are subcultured or harvested for assay use. A serial dilution of test compound is dispensed into a 96-well black clear bottom plate in triplicate. Three thousand cells are added per well in 200 μL complete growth medium in the 96-well plate. Plates are incubated for 67-72 hours at 37° C., 5% CO2, and 95% humidity. At the end of the incubation, 40 μL of a 440 μM solution of resazurin (Sigma, #199303, St. Louis, MO) in PBS is added to each well of the plate and plates are incubated for an additional 6-7 hours at 37° C., 5% CO2, and 95% humidity. Plates are read on a Synergy2 or equivalent reader (Biotek, Winooski VT) using an excitation of 540 nm and an emission of 600 nm. Data is analyzed using Prism software (GraphPad, San Diego, CA) to calculate IC50 values.

[1] = target: A-Raf kinase (SEQ. ID No: 1) (Homo sapiens (Human), UniProt P10398, Y301D/Y302D); assay: Biochemical Assay for A-Raf (1); conditions: Table J, assay version (1); read-out: ARAF (1) IC50
Method in brief: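 A-Raf Y301D/Y302D at 5.55 nM phosphorylates 30.1 nM MEK with 1 mM ATP in pH 7.5 Tris buffer, 1% DMSO. Activity was read continuously as NADH oxidation at 340 nm in a pyruvate kinase/lactate dehydrogenase coupled system for 6 h at 30 °C. Rates from 4–5 h were converted to percent inhibition, and IC50 came from a four-parameter fit.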

[2] = target: B-Raf (V600E) (SEQ. ID NO: 4) kinase (Homo sapiens (Human), UniProt P15056, V600E); assay: Biochemical Assay for B-Raf (V600E) (1); conditions: Table J, BRAF V600E, assay version (1); read-out: BRAF VE (1) IC50
Method in brief: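 Coupled pyruvate kinase/lactate dehydrogenase assay: 0.03 nM B-Raf V600E, 30.1 nM MEK, 1 mM ATP, pH 7.5 Tris/MgCl2 buffer, 1% DMSO. NADH oxidation followed at 340 nm for 6 h at 30 °C; rate from 3–4 h converted to percent inhibition, IC50 by four-parameter fit.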

Chain of A-Raf kinase (SEQ. ID No: 1) (P10398 other isoform, or with tags, fused parts or gaps Y301D (already in the parent)/Y302D (already in the parent)): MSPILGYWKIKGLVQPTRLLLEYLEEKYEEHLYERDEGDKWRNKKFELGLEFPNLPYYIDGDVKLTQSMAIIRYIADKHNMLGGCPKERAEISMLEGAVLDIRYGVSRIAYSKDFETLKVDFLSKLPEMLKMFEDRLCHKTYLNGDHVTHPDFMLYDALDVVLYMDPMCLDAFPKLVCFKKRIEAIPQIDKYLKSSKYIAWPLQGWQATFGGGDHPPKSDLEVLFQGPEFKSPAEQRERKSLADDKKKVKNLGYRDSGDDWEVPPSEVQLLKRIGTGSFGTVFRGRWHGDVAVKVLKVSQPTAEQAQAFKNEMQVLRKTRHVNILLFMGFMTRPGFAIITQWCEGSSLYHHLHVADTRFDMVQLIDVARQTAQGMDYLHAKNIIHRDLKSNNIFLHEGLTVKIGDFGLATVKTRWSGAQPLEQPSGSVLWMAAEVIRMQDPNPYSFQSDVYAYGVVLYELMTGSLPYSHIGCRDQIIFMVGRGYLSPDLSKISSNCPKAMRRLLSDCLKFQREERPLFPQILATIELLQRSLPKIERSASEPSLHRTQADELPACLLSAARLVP
Chain of B-Raf (V600E) (SEQ. ID NO: 4) kinase (P15056 416-766 V600E): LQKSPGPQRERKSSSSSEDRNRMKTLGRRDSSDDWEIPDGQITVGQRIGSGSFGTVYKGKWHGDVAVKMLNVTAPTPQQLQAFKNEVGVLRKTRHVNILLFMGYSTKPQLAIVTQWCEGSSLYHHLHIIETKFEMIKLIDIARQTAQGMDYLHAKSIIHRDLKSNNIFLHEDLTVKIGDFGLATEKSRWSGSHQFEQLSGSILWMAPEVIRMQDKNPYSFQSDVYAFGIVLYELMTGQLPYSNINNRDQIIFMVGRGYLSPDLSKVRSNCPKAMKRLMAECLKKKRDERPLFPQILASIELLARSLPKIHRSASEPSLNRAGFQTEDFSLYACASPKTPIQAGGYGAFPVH

Row | SMILES | IC50 [1] [nM] | IC50 [2] [nM] | IC50 (WM3928 cells) [nM]
1 | Cc1ncc(NC(=O)c2ccnc(C(F)(F)F)c2)cc1-c1cccc(-c2ccnc(N)c2)c1 [Example 94] | 1000 to 10000 | ≤ 100 | –
2 | CNC(=O)c1cc(-c2ccnc(-c3cc(NC(=O)c4ccnc(C(C)(C)C#N)c4)ccc3C)n2)ccn1 [Example 177] | 1000 to 10000 | ≤ 100 | ≤ 100
3 | CC(=O)Nc1nccc(-c2cccc(-c3cc(NC(=O)c4ccnc(C(F)(F)F)c4)ccc3C)c2)c1C#N [Example 132] | 1000 to 10000 | ≤ 100 | 100 to 500
4 | CC(=O)Nc1cc(-c2nccc(-c3cc(NC(=O)c4ccnc(C5CC5)c4)ccc3C)n2)ccn1 [Example 152] | 500 to 1000 | ≤ 100 | ≤ 100
5 | CNC(=O)c1cc(-c2cc(-c3cc(NC(=O)c4ccnc(C(C)(C)C#N)c4)cnc3C)ccn2)ccn1 [Example 158] | 1000 to 10000 | ≤ 100 | 100 to 500
6 | Cc1ccc(NC(=O)c2ccnc(C(C)(C)C#N)c2)cc1-c1cccc(-c2ncnc3c2CC(=O)N3)c1 [Example 109] | 1000 to 10000 | ≤ 100 | ≤ 100
7 | Cc1ccc(NC(=O)c2ccnc(C(C)(C)C#N)c2)cc1-c1ccnc(-c2ccnc3c2CC(=O)N3)n1 [Example 101] | 1000 to 10000 | ≤ 100 | 100 to 500
8 | CC(=O)Nc1cc(-c2cc(-c3cc(NC(=O)c4ccnc(C(F)(F)F)c4)c(F)cc3C)cc(C)n2)ccn1 [Example 4] | 1000 to 10000 | ≤ 100 | –
9 | CNC(=O)c1cc(-c2nccc(-c3cc(NC(=O)c4ccnc(C5(C#N)CC5)c4)ccc3C)n2)ccn1 [Example 175] | 1000 to 10000 | ≤ 100 | ≤ 100
10 | CC(=O)Nc1cc(-c2cc(-c3cc(NC(=O)c4ccnc(C(C)(C)C#N)c4)ccc3C)cn(C)c2=O)ccn1 [Example 113] | 1000 to 10000 | ≤ 100 | 100 to 500
11 | COCCNc1cc(-c2cccc(-c3cc(NC(=O)c4ccnc(C(F)(F)F)c4)ccc3C)c2)ncn1 [Example 156] | 1000 to 10000 | ≤ 100 | 500 to 1000
12 | Cc1ccc(NC(=O)c2cccc(C(C)(C)C#N)c2)cc1-c1cccc(-c2cc(NC(=O)C3CC3)ncn2)c1 [Example 174] | 1000 to 10000 | ≤ 100 | ≤ 100
13 | CNC(=O)c1cc(-c2cccc(-c3cc(NC(=O)c4ccnc(C(F)(F)F)c4)ccc3C)c2)ncn1 [Example 106] | 1000 to 10000 | ≤ 100 | –
14 | Cc1cc(F)c(NC(=O)c2ccnc(C(F)(F)F)c2)cc1-c1ccnc(-c2ccnc(NC(=O)CN(C)C)c2)c1 [Example 7] | 1000 to 10000 | ≤ 100 | –
15 | CC(=O)Nc1cc(-c2cccc(-c3cc(NC(=O)c4ccnc(C(F)(F)F)c4)c(F)cc3C)c2)ncn1 [Example 114] | 1000 to 10000 | ≤ 100 | ≤ 100
16 | CNc1cc(-c2cccc(-c3cc(NC(=O)c4ccnc(C(C)(C)C#N)c4)ccc3C)c2)ncn1 [Example 160] | 1000 to 10000 | ≤ 100 | ≤ 100
17 | CC(=O)Nc1cc(-c2cc(-c3cc(NC(=O)c4ccnc(C(F)(F)F)c4)c(F)cc3C)cc(OC(C)C)n2)ccn1 [Example 10] | 1000 to 10000 | ≤ 100 | ≤ 100
18 | Cc1ncc(NC(=O)c2ccnc(C(C)(C)C#N)c2)cc1-c1cccc(-c2ccnc3c2CC(=O)N3)c1 [Example 105] | 1000 to 10000 | ≤ 100 | 100 to 500
19 | Cc1cc(F)c(NC(=O)c2ccnc(C(C)(C)C#N)c2)cc1-c1ccnc(-c2ccnc(NC(=O)C3CC3)c2)n1 [Example 179] | 500 to 1000 | ≤ 100 | ≤ 100
20 | CNC(=O)c1cc(-c2cc(-c3cc(NC(=O)c4cccc(C(C)(C)C#N)c4)ccc3C)ccn2)ccn1 [Example 127] | 1000 to 10000 | ≤ 100 | –

The next lines start with results.

Row | IC50 [1] [nM] | IC50 [2] [nM] | SMILES | IC50 (WM3928 cells) [nM]
21 | 1000 to 10000 | ≤ 100 | Cc1ccc(NC(=O)c2ccnc(C(F)(F)F)c2)cc1-c1cncc(-c2ccnc(NC=O)c2)n1 [Example 123] | 100 to 500
22 | 100 to 500 | ≤ 100 | Cc1ccc(NC(=O)c2ccnc(C(F)(F)F)c2)cc1-c1cncc(-c2ccnc(NC(=O)CC#N)c2)n1 [Example 98] | –
23 | 1000 to 10000 | ≤ 100 | Cc1ccc(NC(=O)c2ccnc(C(C)(C)C#N)c2)cc1-c1cncc(-c2ccnc(N)c2)n1 [Example 141] | –
24 | 500 to 1000 | ≤ 100 | CC(=O)Nc1cc(-c2cncc(-c3cc(NC(=O)c4ccnc(C(C)(C)C#N)c4)ccc3C)n2)ccn1 [Example 140] | ≤ 100
25 | 1000 to 10000 | ≤ 100 | COc1cc(C(=O)Nc2ccc(C)c(-c3cncc(-c4ccnc(NC(C)=O)c4)n3)c2)ccc1F [Example 120] | –
26 | 1000 to 10000 | ≤ 100 | CNC(=O)c1cc(-c2cncc(-c3cc(NC(=O)c4ccnc(C5(C#N)CC5)c4)ccc3C)n2)ccn1 [Example 138] | –
27 | 1000 to 10000 | ≤ 100 | CC(=O)Nc1cc(-c2cc(-c3cc(NC(=O)c4ccnc(C(F)(F)F)c4)ccc3C)cc(C)n2)ccn1 [Example 5] | ≤ 100
28 | 100 to 500 | ≤ 100 | Cc1ccc(NC(=O)c2ccnc(C3CC3)c2)cc1-c1cncc(-c2ccnc(NC(=O)C3CC3)c2)n1 [Example 184] | ≤ 100
29 | 1000 to 10000 | ≤ 100 | CC(=O)Nc1cc(-c2cc(-c3cc(NC(=O)c4ccnc(C(F)(F)F)c4)ccc3C)cc(=O)n2C)ccn1 [Example 11] | –
30 | 1000 to 10000 | ≤ 100 | CNc1cc(-c2cncc(-c3cc(NC(=O)c4ccnc(C(C)(C)C#N)c4)ccc3C)n2)ccn1 [Example 173] | –
31 | 1000 to 10000 | ≤ 100 | CC(=O)Nc1cc(-c2cc(-c3cc(NC(=O)c4ccnc(C(F)(F)F)c4)ccc3C)cn(CCO)c2=O)ccn1 [Example 102] | –
32 | 500 to 1000 | ≤ 100 | CC(=O)Nc1cc(-c2nccc(-c3cc(NC(=O)c4ccnc(C(C)(C)C#N)c4)ccc3C)n2)ccn1 [Example 118] | ≤ 100
33 | 1000 to 10000 | ≤ 100 | CCOc1cc(-c2cc(NC(=O)c3ccnc(C(F)(F)F)c3)ccc2C)cc(-c2ccnc(NC(C)=O)c2)n1 [Example 8] | –
34 | 1000 to 10000 | ≤ 100 | CCC(=O)Nc1cc(-c2cccc(-c3cc(NC(=O)c4ccnc(C(C)(C)C#N)c4)cnc3C)n2)ccn1 [Example 182] | ≤ 100
35 | 1000 to 10000 | ≤ 100 | Cc1ccc(NC(=O)c2ccnc(C(F)(F)F)c2)cc1-c1cncc(-c2ccnc(NC(=O)CN(C)C)c2)n1 [Example 100] | –
36 | 1000 to 10000 | ≤ 100 | CC(=O)Nc1cc(-c2nccc(-c3cc(NC(=O)c4ccnc(C(F)(F)F)c4)cnc3C)n2)ccn1 [Example 157] | 100 to 500
37 | 500 to 1000 | ≤ 100 | CC(=O)Nc1cc(-c2nccc(-c3cc(NC(=O)c4ccnc(C(F)(F)F)c4)c(F)cc3C)n2)ccn1 [Example 107] | –
38 | 1000 to 10000 | ≤ 100 | CNC(=O)c1cc(-c2cncc(-c3cc(NC(=O)c4cccc(C(C)(C)C#N)c4)ccc3C)n2)ccn1 [Example 136] | –
39 | 100 to 500 | ≤ 100 | CC(=O)Nc1cc(-c2nccc(-c3cc(NC(=O)c4cc(C(F)(F)F)ccn4)ccc3C)n2)ccn1 [Example 153] | –
40 | 1000 to 10000 | ≤ 100 | COCC(=O)Nc1cc(-c2cncc(-c3cc(NC(=O)c4ccnc(C(C)(C)C#N)c4)ccc3C)n2)ccn1 [Example 142] | –
41 | 1000 to 10000 | ≤ 100 | CC(=O)Nc1cc(-c2cncc(-c3cc(NC(=O)c4ccc(Cl)c(C(F)(F)F)c4)ccc3C)n2)ccn1 [Example 121] | –
42 | 1000 to 10000 | ≤ 100 | COCCNc1cc(-c2cncc(-c3cc(NC(=O)c4ccnc(C(C)(C)C#N)c4)ccc3C)n2)ccn1 [Example 143] | –
43 | 1000 to 10000 | ≤ 100 | COCC(=O)Nc1cc(-c2cncc(-c3cc(NC(=O)c4ccnc(C(F)(F)F)c4)ccc3C)n2)ccn1 [Example 99] | –
44 | 1000 to 10000 | ≤ 100 | CNC(=O)c1cc(-c2cncc(-c3cc(NC(=O)c4ccnc(C5CC5)c4)ccc3C)n2)ccn1 [Example 139] | –
45 | 1000 to 10000 | ≤ 100 | CNC(=O)c1cc(-c2cncc(-c3cc(NC(=O)c4cc(C(F)(F)F)ccn4)ccc3C)n2)ccn1 [Example 135] | –
